Measured values reported in patent publication US10750743B2, “Pyridazinone herbicides” (E.I. DU PONT DE NEMOURS AND COMPANY, priority 2015, dated 2020).

Legend:
Assay type in all cases: in vivo
[1] = test system: ryegrass, It. (Italian ryegrass, Lolium multiflorum); assay: Test A preemergence, directed soil spray, visual injury rating; settings: 0 is no effect, 100 is complete control
Description: (§1) Seeds of plant species selected from barnyardgrass (Echinochloa crus-galli), kochia (Kochia scoparia), ragweed (common ragweed, Ambrosia elatior), ryegrass, It. (Italian ryegrass, Lolium multiflorum), foxtail, giant (giant foxtail, Setaria faberii), and pigweed (Amaranthus retroflexus), were planted into a blend of loam soil and sand and treated preemergence with a directed soil spray using test chemicals formulated in a non-phytotoxic solvent mixture which included a surfactant.
(§2) At the same time, plants selected from these weed species and also wheat (Triticum aestivum), corn (Zea mays), blackgrass (Alopecurus myosuroides), and galium (catchweed bedstraw, Galium aparine), were planted in pots containing the same blend of loam soil and sand and treated with postemergence applications of test chemicals formulated in the same manner Plants ranged in height from 2 to 10 cm and were in the one- to two-leaf stage for the postemergence treatment. Treated plants and untreated controls were maintained in a greenhouse for approximately 10 d, after which time all treated plants were compared to untreated controls and visually evaluated for injury. Plant response ratings, summarized in Table A, are based on a 0 to 100 scale where 0 is no effect and 100 is complete control. A dash (-) response means no test result.

[2] = test system: pigweed (Amaranthus retroflexus); assay: as above; settings: 0 is no effect, 100 is complete control
Description: as §1, §2

[3] = test system: kochia (Kochia scoparia); assay: as above; settings: 0 is no effect, 100 is complete control
Description: as §1, §2

[4] = test system: ragweed (common ragweed, Ambrosia elatior); assay: as above; settings: 0 is no effect, 100 is complete control
Description: as §1, §2

[5] = test system: barnyardgrass (Echinochloa crus-galli); assay: as above; settings: 0 is no effect, 100 is complete control
Description: as §1, §2

[6] = test system: foxtail, giant (giant foxtail, Setaria faberii); assay: as above; settings: 0 is no effect, 100 is complete control
Description: as §1, §2

[7] = test system: wheat (Triticum aestivum); assay: Test A postemergence application, visual injury rating; settings: 0 to 100 scale, 0 no effect, 100 complete control
Description: as §1, §2

[8] = test system: corn (Zea mays); assay: as above; settings: 0 to 100 scale, 0 no effect, 100 complete control
Description: as §1, §2

[9] = test system: ryegrass, It. (Italian ryegrass, Lolium multiflorum); assay: as above; settings: 0 to 100 scale, 0 no effect, 100 complete control
Description: as §1, §2

[10] = test system: pigweed (Amaranthus retroflexus); assay: as above; settings: 0 to 100 scale, 0 no effect, 100 complete control
Description: as §1, §2

[11] = test system: kochia (Kochia scoparia); assay: as above; settings: 0 to 100 scale, 0 no effect, 100 complete control
Description: as §1, §2

[12] = test system: ragweed (common ragweed, Ambrosia elatior); assay: as above; settings: 0 to 100 scale, 0 no effect, 100 complete control
Description: as §1, §2

[13] = test system: barnyardgrass (Echinochloa crus-galli); assay: as above; settings: 0 to 100 scale, 0 no effect, 100 complete control
Description: as §1, §2

[14] = test system: foxtail, giant (giant foxtail, Setaria faberii); assay: as above; settings: 0 to 100 scale, 0 no effect, 100 complete control
Description: as §1, §2

[15] = test system: blackgrass (Alopecurus myosuroides); assay: as above; settings: 0 to 100 scale, 0 no effect, 100 complete control
Description: as §1, §2

[16] = test system: galium (catchweed bedstraw, Galium aparine); assay: as above; settings: 0 to 100 scale, 0 no effect, 100 complete control
Description: as §1, §2

SMILES	Plant response rating (0 to 100 scale), Ryegrass, It. ([1]; 125 g ai/ha)	Plant response rating (0 to 100 scale), Ryegrass, It. ([1]; 500 g ai/ha)	Plant response rating (0 to 100 scale), Pigweed ([2]; 125 g ai/ha)	Plant response rating (0 to 100 scale), Pigweed ([2]; 500 g ai/ha)	Plant response rating (0 to 100 scale), Kochia ([3]; 125 g ai/ha)	Plant response rating (0 to 100 scale), Kochia ([3]; 500 g ai/ha)	Plant response rating (0 to 100 scale), Ragweed ([4]; 125 g ai/ha)	Plant response rating (0 to 100 scale), Barnyardgrass ([5]; 125 g ai/ha)	Plant response rating (0 to 100 scale), Barnyardgrass ([5]; 500 g ai/ha)	Plant response rating (0 to 100 scale), Foxtail, Giant ([6]; 125 g ai/ha)	Plant response rating (0 to 100 scale), Foxtail, Giant ([6]; 500 g ai/ha)	Wheat plant response rating ([7]; 125 g ai/ha)	Wheat plant response rating ([7]; 500 g ai/ha)	Corn plant response rating ([8]; 125 g ai/ha)	Corn plant response rating ([8]; 500 g ai/ha)	Ryegrass, It. plant response rating ([9]; 125 g ai/ha)	Ryegrass, It. plant response rating ([9]; 500 g ai/ha)	Pigweed plant response rating ([10]; 125 g ai/ha)	Pigweed plant response rating ([10]; 500 g ai/ha)	Kochia plant response rating ([11]; 125 g ai/ha)	other results
CCOC(=O)Oc1c(C)nn(C)c(=O)c1-c1cccc2sccc12 [Compound 5]	80	100	20	100	10	30	0	0	40	0	40	0	20	0	0	70	90	0	20	0	Plant response rating (0 to 100 scale), Ragweed ([4]; 500 g ai/ha): 20; Kochia plant response rating ([11]; 500 g ai/ha): 20; Ragweed plant response rating ([12]; 125 g ai/ha): 0; Ragweed plant response rating ([12]; 500 g ai/ha): 20; Barnyardgrass plant response rating ([13]; 125 g ai/ha): 0; Barnyardgrass plant response rating ([13]; 500 g ai/ha): 20; Foxtail, Giant plant response rating ([14]; 125 g ai/ha): 0; Foxtail, Giant plant response rating ([14]; 500 g ai/ha): 20; Blackgrass plant response rating ([15]; 125 g ai/ha): 30; Blackgrass plant response rating ([15]; 500 g ai/ha): 60; Galium plant response rating ([16]; 125 g ai/ha): 30; Galium plant response rating ([16]; 500 g ai/ha): 80
Cc1cnc2sc(C)c(-c3c(OC(=O)OC(C)C)c(C)nn(C)c3=O)c2c1 [Compound 6]	0	50	0	70	0	50	0	0	0	20	0	0	0	0	0	20	60	20	80	30	Kochia plant response rating ([11]; 500 g ai/ha): 60; Ragweed plant response rating ([12]; 125 g ai/ha): 10; Ragweed plant response rating ([12]; 500 g ai/ha): 30; Barnyardgrass plant response rating ([13]; 125 g ai/ha): 0; Barnyardgrass plant response rating ([13]; 500 g ai/ha): 10; Foxtail, Giant plant response rating ([14]; 125 g ai/ha): 20; Foxtail, Giant plant response rating ([14]; 500 g ai/ha): 40; Blackgrass plant response rating ([15]; 125 g ai/ha): 0; Blackgrass plant response rating ([15]; 500 g ai/ha): 20; Galium plant response rating ([16]; 125 g ai/ha): 50; Galium plant response rating ([16]; 500 g ai/ha): 70
